“And” between values parts separate entries of the source, which are not always exact repeats. Equal values may be shown once. Read-outs that look alike come from different tables or passages of the source.
Columns and labels:
[1] = cited from earlier work
[2] = Compartmental PK modeling of single-dose 500 mg data in healthy volunteers; format: in vivo, human
Text: The PBPK model of fedratinib was constructed in Simcyp® by integrating available in vitro and in vivo information, including physiochemical parameters, permeability and blood binding parameters, enzyme and transporter inhibition parameters, and human PK parameters estimated from clinical PK data. A stepwise “middle-out” approach was applied to estimate the human PBPK parameters for fedratinib in Simcyp®. First, the temporal profiles of mean plasma concentration of fedratinib were collected from the clinical studies in healthy volunteers (HVs) administered single doses of 500 mg fedratinib. Then the preliminary human oral PK parameters were estimated as described in Supplemental Materials SM2 and SM3.
The minimal PBPK model within Simcyp® was used to describe the distribution of fedratinib. The Vss, Vsac, and Q values were estimated using the compartmental PK modeling approach (see Table 3 in Supplemental Material SM 3) and further refined within Simcyp® based on the model-predicted bioavailability (F) using the following equations: […]
The estimated values of Vss, Vsac, and Q were directly supplied to the Distribution module within Simcyp® without further modifications. Note that since the intravenous (IV) PK data are not available in humans for fedratinib, the distribution parameters include Vss estimated from the oral human PK data may not be accurate and will be subject to further verification if the human IV PK data of fedratinib or other relevant clinical information are available in the future.
The temporal profiles of mean plasma concentration of fedratinib were collected from the clinical studies (TDU12620, BDR12462, FED12258, and ALI13451) conducted in healthy volunteers (HVs) administered with single doses of 500 mg fedratinib. The compartmental PK modeling was conducted in Phoenix®/NLME (V7, Certara, Princeton, NJ). A two-compartment PK structural model with the additive error model was identified to successfully describe the PK data. The “naïve pooled” algorithm provided in Phoenix was used for parameter estimation.

[3] = Biliary excretion in bile-duct cannulated rats (PDM-07-10348-059); format: in vivo; conditions: iv 5 mg/kg
Text: The biliary excretion of unchanged drug accounts for 2.3% of the total intravenous dose in bile-duct cannulated (BDC) rats.

CYP2D6 = target: T1, CYP2D6 (Homo sapiens, UniProt P10635); assay: CYP inhibition in human liver microsomes (MIH0887), CYP2D6; format: in vitro ADME; conditions: HLM, apparent Ki, reversible inhibition
T1 construct: from tissue; host or cells: human liver microsomes
Method: (§1) The CYP enzyme reverse inhibition and mechanism-based inhibition (MBI) parameters were estimated in the human liver microsome (HLM) incubation in vitro studies. The reported reversible inhibition parameter (i.e., apparent Ki) values for CYP2C8, CYP2C9, and CYP2D6, along with the MBI parameters (i.e., KI or Kapp and kinact) for CYP2C19 and CYP3A4, were supplied to the PBPK DDI model (see Table 2).

CYP2C8 = target: T2, CYP2C8 (Homo sapiens, UniProt P10632); assay: CYP inhibition in human liver microsomes (MIH0887), CYP2C8; format: in vitro ADME; conditions: HLM, apparent Ki, reversible inhibition
T2 construct: from tissue; host or cells: human liver microsomes
T2 sequence (P10632 1-490): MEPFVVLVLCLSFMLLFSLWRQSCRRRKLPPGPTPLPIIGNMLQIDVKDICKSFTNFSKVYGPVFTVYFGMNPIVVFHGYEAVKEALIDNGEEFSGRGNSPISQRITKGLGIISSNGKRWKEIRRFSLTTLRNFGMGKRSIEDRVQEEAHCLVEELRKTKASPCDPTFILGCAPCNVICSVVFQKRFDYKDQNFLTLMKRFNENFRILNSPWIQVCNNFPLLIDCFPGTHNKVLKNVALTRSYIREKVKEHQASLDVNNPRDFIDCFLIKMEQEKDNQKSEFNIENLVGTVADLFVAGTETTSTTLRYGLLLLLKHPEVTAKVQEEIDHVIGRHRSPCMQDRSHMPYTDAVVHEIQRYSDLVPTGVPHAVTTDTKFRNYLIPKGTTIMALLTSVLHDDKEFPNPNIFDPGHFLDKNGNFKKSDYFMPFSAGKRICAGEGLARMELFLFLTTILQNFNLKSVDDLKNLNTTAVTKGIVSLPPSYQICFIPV
Method: as §1

[4] = 300 mg QD, MF patients, Day 1, observation, GM
[5] = 300 mg QD, MF patients, Day 1, observation, Mean (SD)
[6] = 300 mg QD, MF patients, steady state, observation, GM
[7] = 300 mg QD, MF patients, steady state, observation, Mean (SD)
[8] = 400 mg QD, MF patients, Day 1, observation, GM
[9] = 400 mg QD, MF patients, Day 1, observation, Mean (SD)
[10] = 400 mg QD, MF patients, steady state, observation, GM
[11] = 400 mg QD, MF patients, steady state, observation, Mean (SD)
[12] = 500 mg QD, MF patients, Day 1, observation, GM
[13] = 500 mg QD, MF patients, Day 1, observation, Mean (SD)
[14] = 500 mg QD, MF patients, steady state, observation, GM
[15] = 500 mg QD, MF patients, steady state, observation, Mean (SD)
[16] = clinical observation in MF patients
[17] = healthy subjects, single doses of 500 mg, two-compartment model

T1 sequence (P10635 whole entry): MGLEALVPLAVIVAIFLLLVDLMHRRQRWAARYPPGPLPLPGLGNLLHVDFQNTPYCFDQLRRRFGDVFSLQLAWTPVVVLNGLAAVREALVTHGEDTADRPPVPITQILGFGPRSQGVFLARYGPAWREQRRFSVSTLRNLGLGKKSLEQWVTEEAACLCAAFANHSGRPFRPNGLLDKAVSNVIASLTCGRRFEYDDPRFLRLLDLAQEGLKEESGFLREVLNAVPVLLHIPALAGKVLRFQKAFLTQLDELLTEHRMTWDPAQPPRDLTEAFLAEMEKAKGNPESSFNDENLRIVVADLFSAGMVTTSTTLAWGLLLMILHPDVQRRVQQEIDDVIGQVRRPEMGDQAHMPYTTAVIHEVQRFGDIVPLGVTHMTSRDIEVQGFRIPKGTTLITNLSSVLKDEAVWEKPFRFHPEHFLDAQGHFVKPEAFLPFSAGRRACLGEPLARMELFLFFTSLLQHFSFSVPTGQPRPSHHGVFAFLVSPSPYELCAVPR

## Cc1cnc(Nc2ccc(OCCN3CCCC3)cc2)nc1Nc1cccc(S(=O)(=O)NC(C)(C)C)c1 [Fedratinib]
[1]; [4]
  AUC (AUCτ): 7020 ng·h/mL
  Cmax: 1070 ng/mL
[1]; [5]
  AUC (AUCτ): 9460 (7770) ng/mL·h
  Cmax: 1380 (1060) ng/mL
[1]; [6]
  AUC (AUCτ): 22400 ng·h/mL
  Cmax: 1530 ng/mL
[1]; [7]
  AUC (AUCτ): 25300 (14100) ng/mL·h
  Cmax: 1800 (1120) ng/mL
[1]; [8]
  AUC (AUCτ): 9130 ng·h/mL
  Cmax: 1290 ng/mL
[1]; [9]
  AUC (AUCτ): 9610 (3450) ng/mL·h
  Cmax: 1430 (754) ng/mL
[1]; [10]
  AUC (AUCτ): 26900 ng·h/mL
  Cmax: 1800 ng/mL
[1]; [11]
  AUC (AUCτ): 29100 (13500) ng/mL·h
  Cmax: 2020 (1250) ng/mL
[1]; [12]
  AUC (AUCτ): 9980 ng·h/mL
  Cmax: 1270 ng/mL
[1]; [13]
  AUC (AUCτ): 11300 (6060) ng/mL·h
  Cmax: 1420 (710) ng/mL
[1]; [14]
  AUC (AUCτ): 38700 ng·h/mL
  Cmax: 2540 ng/mL
[1]; [15]
  AUC (AUCτ): 44500 (24900) ng/mL·h
  Cmax: 2830 (1370) ng/mL
[1]; Study ARD11936 500 mg QD, MF patients, observed
  accumulation ratio, AUC: 3.9
[1]; [16]
  accumulation ratio, AUC: 2.9–3.2
  accumulation ratio, Cmax: 1.4–2.0
[2]; Simcyp input
  ka: 0.220 h⁻¹
[2]; from compartmental modeling, assuming F ~0.36
  Q (inter-compartment clearance): ~ 11 L/h
[2]; from compartmental modeling, assuming F ~0.36 and body weight ~81 kg
  Vsac: 3.5 L/kg
[2]; from compartmental modeling, assuming F ~0.36 and body weight ~81 kg, listed as fedratinib
  Vsac: 3.5 L/kg
[2]; healthy subjects, single doses of 500 mg
  ka (first-order absorption constant): 0.22 h⁻¹ and 0.221 h⁻¹
[2]; [17]
  CL2/F: 30.8 L/h
  CL/F: 27.2 L/h
  V2/F: 797 L
  V/F: 107 L
[2]; healthy subjects, single doses of 500 mg, listed as fedratinib
  ka (first-order absorption constant): ~ 0.22 h^-1
[2]; human, plasma, oral, 500 mg, from compartmental modeling, assuming F ~0.36 and body weight ~81 kg, read-out: Vss
  Vd: ~4.1 L/kg
[3]
  biliary excretion of unchanged drug, percent of total intravenous dose: 2.3%
CYP2D6
  Ki: 10.1 µM
CYP2C8
  Ki: 50.4 µM

From publication PMC7515950, “Physiologically based pharmacokinetic modeling to assess metabolic drug–drug interaction risks and inform the drug label for fedratinib” (Cancer Chemotherapy and Pharmacology, 2020)
